Assay results: PubChem BioAssay AID2060495 (Molecular Pharmacology Branch, DTP, NCI, 2025)

System: 521955-158-R2-J5-PDC complex spheroid viability
Experiment: Anticancer human tumor 521955-158-R2-J5-PDC patient-derived pancreatic carcinoma cell line growth inhibition [GQUAD]
Settings: for IC50: curve of first compound; for viability, T/C: stronger effect = lower value
Outline: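 Viability of tumor cells grown as complex spheroids with endothelial and stromal cells, exposed to drug combinations. Top concentration at or near clinical Cmax (else 10 microM), diluted in half-log increments.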

[1] = second compound 0.0316 µM, first compound 0.000999 µM
[2] = second compound 0.0316 µM, first compound 0.00316 µM
[3] = second compound 0.0316 µM, first compound 0.00999 µM
[4] = second compound 0.0316 µM, first compound 0.0316 µM
[5] = second compound 0.0316 µM, first compound 0.0999 µM
[6] = second compound 0.0316 µM, first compound 0.316 µM
[7] = second compound 0.1 µM, first compound 0.000999 µM
[8] = second compound 0.1 µM, first compound 0.00316 µM
[9] = second compound 0.1 µM, first compound 0.00999 µM
[10] = second compound 0.1 µM, first compound 0.0316 µM
[11] = second compound 0.1 µM, first compound 0.0999 µM
[12] = second compound 0.1 µM, first compound 0.316 µM
[13] = second compound 0.316 µM, first compound 0.000999 µM
[14] = second compound 0.316 µM, first compound 0.00316 µM
[15] = second compound 0.316 µM, first compound 0.00999 µM
[16] = second compound 0.316 µM, first compound 0.0316 µM
[17] = second compound 0.316 µM, first compound 0.0999 µM
[18] = second compound 0.316 µM, first compound 0.316 µM
[19] = second compound 1 µM, first compound 0.000999 µM
[20] = second compound 1 µM, first compound 0.00316 µM
[21] = second compound 1 µM, first compound 0.00999 µM
[22] = second compound 1 µM, first compound 0.0316 µM
[23] = second compound 1 µM, first compound 0.0999 µM
[24] = second compound 1 µM, first compound 0.316 µM
[25] = second compound 3.16 µM, first compound 0.000999 µM
[26] = second compound 3.16 µM, first compound 0.00316 µM
[27] = second compound 3.16 µM, first compound 0.00999 µM
[28] = second compound 3.16 µM, first compound 0.0316 µM
[29] = second compound 3.16 µM, first compound 0.0999 µM
[30] = second compound 3.16 µM, first compound 0.316 µM
[31] = second compound 10 µM, first compound 0.000999 µM
[32] = second compound 10 µM, first compound 0.00316 µM
[33] = second compound 10 µM, first compound 0.00999 µM
[34] = second compound 10 µM, first compound 0.0316 µM
[35] = second compound 10 µM, first compound 0.0999 µM
[36] = second compound 10 µM, first compound 0.316 µM
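Note: spheroids exposed to agents for one week before reading.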
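Throughout, for viability, T/C: 100% = DMSO vehicle control viability.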

CCc1c2c(nc3ccc(O)cc13)-c1cc3c(c(=O)n1C2)COC(=O)[C@]3(O)CC + Cc1[nH]c2ccc(F)cc2c1-c1nc2c3cccnc3c3ncccc3c2[nH]1
IC50 (second compound 0.0316 µM): 1.44 nM | IC50 (second compound 0.1 µM): 1.57 nM | IC50 (second compound 0.316 µM): 1.52 nM | IC50 (second compound 1 µM): 1.48 nM | IC50 (second compound 3.16 µM): 1.81 nM | IC50 (second compound 10 µM): 1.61 nM | viability, T/C [1]: 66.5% | viability, T/C [2]: 14.4% | viability, T/C [3]: 8.08% | viability, T/C [4]: 6.13% | viability, T/C [5]: 5.29% | viability, T/C [6]: 2.46% | viability, T/C [7]: 73.5% | viability, T/C [8]: 13.8% | viability, T/C [9]: 8.38% | viability, T/C [10]: 6.85% | viability, T/C [11]: 5.08% | viability, T/C [12]: 3.05% | viability, T/C [13]: 70.8% | viability, T/C [14]: 13.3% | viability, T/C [15]: 7.87% | viability, T/C [16]: 5.41% | viability, T/C [17]: 5.92% | viability, T/C [18]: 2.25% | viability, T/C [19]: 69.9% | viability, T/C [20]: 11.7% | viability, T/C [21]: 7.26% | viability, T/C [22]: 5.78% | viability, T/C [23]: 5.91% | viability, T/C [24]: 1.75% | viability, T/C [25]: 83.5% | viability, T/C [26]: 18.2% | viability, T/C [27]: 8.66% | viability, T/C [28]: 7.44% | viability, T/C [29]: 3.96% | viability, T/C [30]: 2.23% | viability, T/C [31]: 72.8% | viability, T/C [32]: 16.9% | viability, T/C [33]: 11.9% | viability, T/C [34]: 8.45% | viability, T/C [35]: 5.37% | viability, T/C [36]: 2.72%

CCc1c2c(nc3ccc(O)cc13)-c1cc3c(c(=O)n1C2)COC(=O)[C@]3(O)CC + CN(C)c1ccc(Nc2c3ccc(NC(=O)CCN4CCCC4)cc3nc3cc(NC(=O)CCN4CCCC4)ccc23)cc1
IC50 (second compound 0.0316 µM): 3.29 nM | IC50 (second compound 0.1 µM): 3.03 nM | IC50 (second compound 0.316 µM): 2.54 nM | IC50 (second compound 1 µM): 2.41 nM | IC50 (second compound 3.16 µM): 2.28 nM | IC50 (second compound 10 µM): 1.54 nM | viability, T/C [1]: 74.6% | viability, T/C [2]: 49.6% | viability, T/C [3]: 32.4% | viability, T/C [4]: 15.1% | viability, T/C [5]: 11.6% | viability, T/C [6]: 9.29% | viability, T/C [7]: 80.2% | viability, T/C [8]: 46.8% | viability, T/C [9]: 31.7% | viability, T/C [10]: 18% | viability, T/C [11]: 9.85% | viability, T/C [12]: 7.27% | viability, T/C [13]: 84.6% | viability, T/C [14]: 39.3% | viability, T/C [15]: 25.3% | viability, T/C [16]: 12.8% | viability, T/C [17]: 11.6% | viability, T/C [18]: 4.59% | viability, T/C [19]: 89.1% | viability, T/C [20]: 33.5% | viability, T/C [21]: 25.4% | viability, T/C [22]: 15.4% | viability, T/C [23]: 9.81% | viability, T/C [24]: 6.13% | viability, T/C [25]: 75.5% | viability, T/C [26]: 33.7% | viability, T/C [27]: 30.4% | viability, T/C [28]: 17.9% | viability, T/C [29]: 7.36% | viability, T/C [30]: 8.33% | viability, T/C [31]: 56.9% | viability, T/C [32]: 37.8% | viability, T/C [33]: 25% | viability, T/C [34]: 11.8% | viability, T/C [35]: 5.13% | viability, T/C [36]: 6.11%

CC(C)(O)C1CCC(Nc2ccc3ncc(-c4cccc(C(F)(F)F)c4)n3n2)CC1 (stereo unspecified) + Cc1cnc(CNC(=O)c2c(=O)c3ccc(N4CCCN(C)CC4)nc3n3c2sc2ccccc23)cn1
IC50 (second compound 0.0316 µM): 1680 nM | IC50 (second compound 0.1 µM): 1200 nM | IC50 (second compound 0.316 µM): < 31.6 nM | IC50 (second compound 1 µM): < 31.6 nM | IC50 (second compound 3.16 µM): < 31.6 nM | IC50 (second compound 10 µM): < 31.6 nM | viability, T/C [4]: 79% | viability, T/C (second compound 0.0316 µM, first compound 0.1 µM): 64.6% | viability, T/C [6]: 90.4% | viability, T/C (second compound 0.0316 µM, first compound 1 µM): 106% | viability, T/C (second compound 0.0316 µM, first compound 3.16 µM): 6.53% | viability, T/C (second compound 0.0316 µM, first compound 10 µM): 7.58% | viability, T/C [10]: 57.4% | viability, T/C (second compound 0.1 µM, first compound 0.1 µM): 57.8% | viability, T/C [12]: 56.5% | viability, T/C (second compound 0.1 µM, first compound 1 µM): 58.6% | viability, T/C (second compound 0.1 µM, first compound 3.16 µM): 9.19% | viability, T/C (second compound 0.1 µM, first compound 10 µM): 8.3% | viability, T/C [16]: 36.9% | viability, T/C (second compound 0.316 µM, first compound 0.1 µM): 30.2% | viability, T/C [18]: 34% | viability, T/C (second compound 0.316 µM, first compound 1 µM): 31.8% | viability, T/C (second compound 0.316 µM, first compound 3.16 µM): 7.87% | viability, T/C (second compound 0.316 µM, first compound 10 µM): 8.39% | viability, T/C [22]: 18.4% | viability, T/C (second compound 1 µM, first compound 0.1 µM): 21.1% | viability, T/C [24]: 16.7% | viability, T/C (second compound 1 µM, first compound 1 µM): 22.3% | viability, T/C (second compound 1 µM, first compound 3.16 µM): 0.25% | viability, T/C (second compound 1 µM, first compound 10 µM): 1.56% | viability, T/C [28]: 18.8% | viability, T/C (second compound 3.16 µM, first compound 0.1 µM): 16.6% | viability, T/C [30]: 17.7% | viability, T/C (second compound 3.16 µM, first compound 1 µM): 15% | viability, T/C (second compound 3.16 µM, first compound 3.16 µM): 0.12% | viability, T/C (second compound 3.16 µM, first compound 10 µM): 0.12% | viability, T/C [34]: 9.8% | viability, T/C (second compound 10 µM, first compound 0.1 µM): 14% | viability, T/C [36]: 10.7% | viability, T/C (second compound 10 µM, first compound 1 µM): 8.62% | viability, T/C (second compound 10 µM, first compound 3.16 µM): 0.21% | viability, T/C (second compound 10 µM, first compound 10 µM): 0.23%
